Experimental data from patent publication US20240156901A1, “GAL3BP POLYPEPTIDE COMPOSITIONS AND METHODS FOR TREATMENT OF CANCER AND DETERMINING TREATMENT RESPONSIVENESS” (UNIVERSITY OF PITTSBURGH-OF THE COMMONWEALTH SYSTEM OF …, priority 2021, published 2024).

Columns and labels:
CHI3L1 secretion = assay: ELISA of secreted CHI3L1 in conditioned medium of GBM neurosphere lines; assay type: cell-based, human; conditions: two GBM neurosphere lines
Experimental: Secreted CHI3L1 protein in the cell culture supernatant was measured by using the Quantikine Human CHI3L1 Immunoassay (R&D Systems, Cat #DC3L10). CHI3L1 content in the conditioned media was quantified per million cells and no CHI3L1 was detected in DMEM or NSC medium supplemented with EGF and bFGF.

Gal3-CHI3L1 interaction = Gal3-CHI3L1 interaction (Homo sapiens, UniProt P17931); conditions: TS603-V5-CHI3L1 cells; 10 μM for 24 hours
Sequence of Gal3-CHI3L1 interaction (P17931 2-250 limits assumed): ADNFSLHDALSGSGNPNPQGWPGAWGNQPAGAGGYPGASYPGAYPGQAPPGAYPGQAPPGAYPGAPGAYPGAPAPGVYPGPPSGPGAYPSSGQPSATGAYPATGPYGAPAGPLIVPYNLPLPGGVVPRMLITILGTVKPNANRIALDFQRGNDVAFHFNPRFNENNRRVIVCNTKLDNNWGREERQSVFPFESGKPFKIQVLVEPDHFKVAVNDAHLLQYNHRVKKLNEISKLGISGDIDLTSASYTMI
Sequence of Gal3-CHI3L1 interaction (P36222 22-383 partner): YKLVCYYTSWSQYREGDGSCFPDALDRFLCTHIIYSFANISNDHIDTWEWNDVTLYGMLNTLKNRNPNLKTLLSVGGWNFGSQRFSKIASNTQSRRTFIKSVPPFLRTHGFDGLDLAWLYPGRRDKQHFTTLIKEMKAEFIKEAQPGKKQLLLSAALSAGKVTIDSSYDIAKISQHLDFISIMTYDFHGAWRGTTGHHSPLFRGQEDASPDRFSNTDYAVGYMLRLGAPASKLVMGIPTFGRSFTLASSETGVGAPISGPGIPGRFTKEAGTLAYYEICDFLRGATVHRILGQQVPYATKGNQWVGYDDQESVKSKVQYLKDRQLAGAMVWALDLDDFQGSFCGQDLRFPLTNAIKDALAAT
Experimental: (§1) TS603 cells overexpressing CHI3L1 with V5 tag (TS603 CHI3L1_V5_OE) or THP-1 cells treated with the peptides were collected and protein-protein interaction was crosslinked with 2 mM Dithiobis (succinimidyl propionate, DSP). Membrane proteins were extracted with the Membrane Protein Extraction Kit (ThermoFisher, Cat #89842) and ˜500 μg of protein was used for Co-IP assay by the Co-Immunoprecipitation Kit (ThermoFisher, Cat #26149). For mass spectrometry, 10 μg of each of the TS603 CHI3L1_V5_OE Co-IP samples were separated in a 12% SDS-PAGE gel and analyzed by MS at the University of Pittsburgh Biomedical MS Center.
(§2) To confirm Co-IP experiments in TS603 cells by immunoblotting, the magnetic beads of protein G (Bio-Rad, Cat #161-4023) were used following the manufacturer's protocol. […] For in vivo THP-1 cell or in vitro recombinant protein Co-IP experiments, additional following antibodies were used: Mouse anti-CHI3L1 (Santa Cruz Biotechnology, Cat #SC-393590), Rat anti-Galectin-3 (Santa Cruz Biotechnology, Cat #SC-23938), anti-Galectin-3BP (Santa Cruz Biotechnology, Cat #SC-374541), Rabbit anti-CHI3L1 (Cell Signaling Technology, Cat #47066), and Rat IgG (BioXCell, Cat #BE0090).

Gal3-Gal3BP interaction = Gal3-Gal3BP interaction (Homo sapiens, UniProt P17931); conditions: TS603-V5-CHI3L1 cells; 10 μM for 24 hours
Sequence of Gal3-Gal3BP interaction (P17931 2-250 limits assumed): as the sequence (P17931 2-250 limits assumed) above
Sequence of Gal3-Gal3BP interaction (P36222 22-383 partner): as the sequence (P36222 22-383 partner) above
Experimental: as §1, §2

GL261-CHI3L1 glioma = assay: Flow cytometry of immune cell populations in GL261-CHI3L1 glioma after peptide treatment; assay type: in vivo, mouse; conditions: tumors of C57BL/6 mice bearing GL261-CHI3L1
Experimental: Mice with neurological deficits or moribund appearance were sacrificed. Tumors were separated and homogenized for 15 min at 37° C. in Collagenase IV Cocktail (3.2 mg/mL collagenase type IV, 2 mg/mL soybean trypsin inhibitor, and 1.0 mg/mL deoxyribonuclease I; Worthington Biochemical). Red blood cells were lysed using ACK lysing buffer (Gibco). Cell suspensions were filtered through 70-μm strainers, centrifuged, and resuspended in cold FACS buffer (DPBS with 1% BSA) for further analysis.
About 3×10^6 cells were used for each staining panel. Cells were incubated with 1.0 μg of TruStain fcX (BioLegend) for 10 min on ice to block Fc receptors, followed by staining with the combination of indicated antibodies. After staining, cells were washed with FACS buffer three times and incubated with Fixation Buffer (BioLegend) at RT for 20 min. Cells were washed with FACS buffer, resuspended in Cyto-Last Buffer (BioLegend), and analyzed by either a BD LSRFortessa or BD FACSAria II SORP. For CyTOF, samples were prepared as described above for flow cytometry. Three pairs of samples (scrambled shRNA vs Chi3l1 KD) with similar tumor sizes were chosen and the staining procedure was followed as previously described (Mitsialis V, et al., 2020). The samples were analyzed on a Helios2 CyTOF system (Fluidigm) at the Longwood Medical Area CyTOF Core. Additional information about flow cytometry antibodies is provided in the Supplementary Material and Methods section.

[1] = test system: GL261-CHI3L1 orthotopic tumors; assay: Peptide treatment of GL261-CHI3L1 orthotopic tumors (MRI, survival); conditions: C57BL/6 mice bearing GL261-CHI3L1 orthotopic tumors; 20 μM peptide into brain tumor via guide screw
Experimental: Male and female ICR SCID and C57BL/6 mice (4-6 weeks of age) were purchased from Taconic Biosciences and The Jackson Laboratory, respectively. The intracranial xenograft tumor models were established as previously described (Hu B et al., 2016). Cells in 5 μL DPBS were injected at the following numbers: TS543 vector control or CHI3L1 overexpression (OE), 1×10^4 cells; QPP7 scrambled control or CHI3L1 knockdown (KD), 1×10^5 cells; and GL261 vector control or CHI3L1 OE, 1×10^5 cells. […] For mice treated with peptides, 5 uL of 20 uM SCP or GMP was delivered into the mouse brain every 4 days with a total of seven times.
MRI and bioluminescent imaging of mice were performed at Rangos Research Center Animal Imaging Core. The tumor size of mice detected by MRI was analyzed with ITK-SNAP.
For intracranial xenograft tumor models treated with peptides, mice were implanted with a guide screw prior to intracranial injection. To install the screw, mice were anesthetized by intraperitoneal (IP) injection with ketamine/xylazine solution (1.75 mL of 100 mg/mL ketamine and 0.25 mL of 100 mg/mL xylazine in 8 mL sterile water) at a dosage of 100 μL/20 g body weight. The screw was covered by sealing the skin, and mice were allowed to recover for one week before intracranial implantation. GL261 cells overexpressing CHI3L1 (1×10^5) were injected in 5 μL of DPBS containing 20 μM of either scrambled control peptide (SCP) or Gal3BP mimetic peptide (GMP). SCP (20 μM) or GMP (20 μM) was subsequently given once every 3 days with a total of seven times by intracranial injection via the guide screw.
All mice received general inhalation anesthesia with Isoflurane for in vivo brain imaging. […] Depth of anesthesia was monitored by toe reflex (extension of limbs, spine positioning) and respiration rate. […] Respiration was monitored using a pneumatic sensor placed between the animal bed and the mouse's abdomen, rectal temperature was measured with a fiberoptic sensor, and core temperature was maintained at 36.8±0.2° C. with a feedback-controlled warm air source (SA Instruments). […]

[2] = test system: mouse microglial cell line (SIM-A9); assay: Scratch-wound healing assay, microglial cell migration; assay type: cell-based; conditions: rCHI3L1 0.6 μg/mL, 6 hours
Experimental: (§3) BMDM were polarized to the indicated status (M0, M1, or M2) and seeded in 12-well plates at 80-90% confluency. The cells were switched to the medium without FBS for 6 hours of starvation. Scratches were made using pipettor tips and fresh IMDM with indicated recombinant proteins and/or peptides were added. Images of the scratches were captured at indicated times. For the SIM-A9 scratch-wound healing assay, 12-well plates were coated with 10 μg/mL fibronectin (Sigma-Aldrich) at 37° C. overnight before seeding cells.

[3] = test system: microglial cell line (SIM-A9); assay: Transwell migration assay, microglial cell migration; assay type: cell-based, mouse
Experimental: (§4) Polarized BMDMs were starved by removing FBS for 6 hours. Cells were collected and 2×10^5 cells in 200 μL of IMDM were added into each transwell insert (Millipore, Cat #MCMP24H48). 700 μL of IMDM containing 2% FBS and the indicated recombinant proteins was added to the bottom of the plates. After 14-hour incubation, transwell inserts were stained with HEMA 3 Stain Set (Fisher Scientific). Insert membranes were separated and mounted on glass slides with CYTOSEAL XYL (ThermoFisher) and images were taken by an inverted microscope (Leica DM 2500). For the SIM-A9 cells, the inserts were coated with 10 μg/mL fibronectin overnight in advance of seeding cells.

[4] = test system: bone-marrow derived macrophages (BMDMs); assay: Transwell migration assay, BMDM migration; assay type: cell-based, mouse
Experimental: (§5) BMDMs were isolated from male and female C57BL/6 mice as previously described (Ying W et al., 2013). Briefly, femur bones were isolated from mice, and IMDM (ATCC) supplemented with 10% FBS and P/S was used to flush the bone marrow into a petri dish. After 4-6-hour incubation, the floating cells were collected and resuspended in the medium with 20 ng/mL M-CSF (PrproTech). On day 6, the fully differentiated cells were designated as an M0 state. To induce BMDM polarization toward an M1 state, 100 ng/mL LPS (Invitrogen) and 50 ng/mL IFNγ (PrproTech) were added to the M0 cells for 24 hours. To induce BMDM polarization toward an M2 state, 20 ng/mL IL-4 (PrproTech) was added to the M0 cells for 72 hours.
as §4

[5] = test system: bone-marrow derived macrophages (BMDMs); assay: Scratch-wound healing assay, BMDM migration; assay type: cell-based, mouse; conditions: rCHI3L1 0.6 μg/mL; 6 hours
Experimental: as §5, §3

## Cn1c(=O)n(-c2ccc(C(C)(C)C#N)cc2)c2c3cc(-c4cnc5ccccc5c4)ccc3ncc21 [NVP-BEZ235]
CHI3L1 secretion
  CHI3L1 secretion in conditioned medium: decreased CHI3L1 secretion in a dose- and time-dependent manner

## Nc1cc(C(F)(F)F)c(-c2cc(N3CCOCC3)nc(N3CCOCC3)n2)cn1 [NVP-BKM120]
CHI3L1 secretion
  CHI3L1 secretion in conditioned medium: decreased CHI3L1 secretion in a dose- and time-dependent manner

## OC[C@H]1O[C@@H](S[C@@H]2O[C@H](CO)[C@H](O)[C@H](n3cc(-c4cccc(F)c4)nn3)[C@H]2O)[C@H](O)[C@@H](n2cc(-c3cccc(F)c3)nn2)[C@H]1O [TD139]
Gal3-CHI3L1 interaction
  Gal3-CHI3L1 interaction (Co-IP): not Gal3-CHI3L1 interactions
Gal3-Gal3BP interaction
  Gal3-Gal3BP interaction (Co-IP): completely disrupted

## L1RTRLEETLSSDTSH15 (LRTRLEETLSSDTSH) [SCP, reference compound]
GL261-CHI3L1 glioma
  CD4+ cell population: 39.8±4.0%
GL261-CHI3L1 glioma; mean±SEM, P=0.0536
  M2-like TAMs: 52.7±3.9%
GL261-CHI3L1 glioma; mean±SEM, P=0.0719
  M1-like TAMs: 38.2±6.7%
[1]
  median survival: 29 days

## rCHI3L1: recombinant CHI3L1 protein
[2]
  microglial cell migration: did not increase cell migration
[3]
  microglial cell migration: not in M0 BMDMs, M1 BMDMs, or microglial cells
[4]
  M2 BMDM migration: promoted cell migration in M2 BMDMs
[5]
  M0 and M1 BMDM migration: not M0 and M1 BMDMs
  M2 BMDM migration: promoted M2 BMDM migration
